The record followed here is patent publication US20080004282A1, “Compositions and methods for modulating gated ion channels” (PainCeptor Pharma Corporation, priority 2006, published 2008).

SMILES strings stand for the structures. Read-outs that look alike come from different tables or passages of the source.

The target in experiment [1] is T1, ASIC1a (Homo sapiens, UniProt P78348).
T1 sequence (P78348 1-528): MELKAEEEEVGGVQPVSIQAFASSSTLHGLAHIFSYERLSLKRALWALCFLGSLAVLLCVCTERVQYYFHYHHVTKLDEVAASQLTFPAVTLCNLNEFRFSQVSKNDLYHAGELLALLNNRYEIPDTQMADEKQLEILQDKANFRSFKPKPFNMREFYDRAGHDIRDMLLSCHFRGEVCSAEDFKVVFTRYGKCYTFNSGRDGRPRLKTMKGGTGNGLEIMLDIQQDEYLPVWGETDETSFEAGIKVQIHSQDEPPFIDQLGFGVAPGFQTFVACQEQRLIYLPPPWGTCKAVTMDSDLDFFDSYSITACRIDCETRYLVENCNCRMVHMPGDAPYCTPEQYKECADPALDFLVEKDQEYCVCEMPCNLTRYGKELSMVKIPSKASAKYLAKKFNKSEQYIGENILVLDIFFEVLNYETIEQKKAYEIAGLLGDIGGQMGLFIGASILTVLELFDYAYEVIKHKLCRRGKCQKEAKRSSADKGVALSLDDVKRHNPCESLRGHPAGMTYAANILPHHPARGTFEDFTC
Kind of experiment: Calcium-imaging (FLIPR) of MES-induced calcium response in ASIC1a expressing HEK293 cells. The class given is cell-based. More on the design: host or cells: HEK293. The protocol:
Identification of ASIC Antagonists Using Calcium-Imaging
ASIC1a expressing HEK293 cells are grown in culture medium (DMEM with 10% FBS), in polystyrene culture flasks (175 mm 2) at 37° C. in a humidified atmosphere of 5% CO2. Confluency of cells should be 80-90% on day of plating. Cells are rinsed with 10 ml of PBS and cells are re-suspended by addition of culture medium and trituration with a 25 ml pipette.
The cells are seeded at a density of approximately 1×10^6 cells/ml (100 μl/well) in black-walled, clear bottom, 96-well plates pre-treated with 10 mg/l poly-D-lysin (75 μl/well for ≧30 min). Plated cells are allowed to proliferate for 24 h before loading with dye.
Loading with Fluorescent Calcium Dye Fluo-4/AM
Fluo-4/AM (1 mg, Molecular Probes) is dissolved in 912 μl DMSO. The Fluo-4/AM stock solution (1 mM) is diluted with culture medium to a final concentration of 2 μM (loading solution).
The culture medium is aspirated from the wells, and 50 μl of the Fluo-4/AM loading solution is added to each well. The cells are incubated at 37° C. for 30 min.
After the loading period, the loading solution is aspirated and the cells are washed twice with 100 μl modified Assay Buffer (145 mM NaCl, 5 mM KCl, 5 mM CaCl2, 1 mM MgCl2, 10 mM HEPES, pH 7.4) to remove extracellular dye. Following the second wash, 100 μl modified Assay Buffer is added to each well and the fluorescence is measured in FLIPR™ or FlexStation™ (Molecular Devices, USA), or any other suitable equipment known to the skilled in the art.
Temperature: Room temperature (20-22° C.)
First addition: 50 μl test solution at a rate of 30 μl/sec and a starting height of […]
Second addition: 50 μl MES solution (20 mM, 5 mM final concentration) at a rate of 35 μl/sec and a starting height of 150 μl.
Reading intervals: pre-incubation—10 sec×7 and 3 sec×3 antagonist phase—3 sec×17 and 10 sec×12
Addition plates (compound test plate and MES plate) are placed on the right and left positions in the FLIPR tray, respectively. Cell plates are placed in the middle position and the ASIC1a program is effectuated. FLIPR will then take the appropriate measurements in accordance with the interval settings above. Fluorescence obtained after stimulation is corrected for the mean basal fluorescence (in modified Assay Buffer).
Hit Confirmation and Characterization of Active Substances
The MES-induced peak calcium response, in the presence of test substance, is expressed relatively to the MES response alone. Test substances that block the MES-induced calcium response are re-tested in triplicates. […]

Experiment [2] has as its target T1, ASIC1a. The experiment is described as follows: Two-electrode voltage clamp of acid-induced currents in Xenopus laevis oocytes. The class given is cell-based. More on the design: expressed in transfected cells; host or cells: Xenopus laevis oocytes, nuclear microinjection of an expression vector such as pCDNA3. The note with it: 50 μM, Xenopus oocytes; read-out: % inh. at 50 μM (Xo). As to the method:
Screening and Bioanalysis of ASIC Antagonists in Xenopus laevis oocytes
This example describes the in vitro assessment of the activity of the compounds of the present invention.
Two-electrode voltage clamp electrophysiological assays in Xenopus laevis oocytes expressing gated ion channels are performed as follows:
Oocytes are surgically removed from adult Xenopus laevis and treated for 2 h at room temperature with 1 mg/ml type I collagenase (Sigma) in Barth's solution under mild agitation. Selected oocytes at stage IV-V are defolliculated manually before nuclear microinjection of 2.5-5 ng of a suitable expression vector, such as pCDNA3, comprising the nucleotide sequence encoding a gated ion channel subunit protein. In such an experiment, the oocytes express homomultimeric proton-gated ion channels on their surface. In an alternate experiment, one, two, three or more vectors comprising the coding sequences for distinct gated ion channel subunits are co-injected in the oocyte nuclei. In the latter case, oocytes express heteromultimeric proton-gated ion channels. For example, ASIC2a and/or ASIC3 subunits in pcDNA3 vector are co-injected at a 1:1 cDNA ratio. After 2-4 days of expression at 19° C. in Barth's solution containing […] gentamicin and 1.8 mM CaCl2, gated ion channels are activated by applying an acidic solution (pH<7) and currents are recorded in a two electrode voltage-clamp configuration, using an OC-725B amplifier (Warner Instruments). Currents are acquired and digitized at 500 Hz on an Apple Imac G3 computer with an A/D NB-MIO-16XL interface (National Instruments) and recorded traces are post-filtered at 100 Hz in Axograph (Axon Instruments) (Neher, E. and Sakmann, B. (1976) Nature 260:799-802). Once impaled with the microelectrodes, oocytes are continuously superfused at 10-12 ml/min with a modified Ringer's solution containing 97 mM NaCl, 2 mM KCl, 1.8 mM CaCl2, and 10 mM HEPES brought to pH 7.4 with NaOH (Control Ringer). Test Ringer solution is prepared by replacing HEPES with MES and adjusting the pH to the desired acidic value. Compounds of the present invention are prepared in both the Control and Test Ringer solutions and applied to oocytes at room temperature through a computer-controlled switching valve system. Osmolarity of all solutions is adjusted to 235 mOsm with choline chloride. Similarly, recordings can also be acquired in an automated multichannel oocytes system as the OpusExpress™ (Molecular Devices, Sunnyvale, USA).
FIGS. 1A and 2A illustrate the inhibitory effects of Compounds 12 and 44 on acid-induced activation of recombinant homomeric hASIC1a channels. FIGS. 1A and 2A show the dose-dependent inhibition of the acid-induced hASIC1a currents recorded from Xenopus laevis oocytes using the two-electrode voltage clamp method (as described in this example) in the absence or presence of increasing concentration of the compounds.
In general terms: In two-electrode clamp one electrode senses voltage and the other passes current.

[3] abbreviates: MES-induced calcium response, ASIC1a expressing HEK293 cells, read-out: IC50 (FLIPR).

For `CCN1CCc2c(-c3ccccc3OC)cc(C#N)c(N)c2C1` [Compound 45], in experiment [1] (setting [3]), the IC50 (commonly the concentration at which inhibition is half-maximal) lay in the range of 10 to 20 µM. Further, the inhibition at 50 µM in experiment [2] is greater than 50%. In the case of `CCN1CCc2c(-c3ccccc3)cc(Br)c(N)c2C1` [Compound 46], in experiment [2], the inhibition at 50 µM is greater than 40%.

With `CCN1CCc2c(-c3cc(C)ccc3C)cc(C#N)c(N)c2C1` [Compound 47], in experiment [2], the inhibition at 50 µM was greater than 40%.

In the case of `CCN1CCc2c(-c3cc(C)cc(C)c3)cc(C#N)c(N)c2C1` [Compound 48], the IC50 in experiment [1] was less than 10 µM. Further, the inhibition at 50 µM in experiment [2] was greater than 50%.

For `CCN1CCc2c(-c3ccccc3)cc(Br)c(N(C)C)c2C1` [Compound 49], the inhibition at 50 µM in experiment [2] is 20 to 30%. With `CCN1CCc2c(-c3ccccc3)cc(C#N)c(N(C)C)c2C1` [Compound 50], in experiment [1] (setting [3]), the IC50 lay in the range of 10 to 20 µM. In addition, the inhibition at 50 µM in experiment [2] is greater than 50%. As for `CCN1CCc2c(-c3ccccc3)cc(C#N)c([N+](=O)[O-])c2C1` [Compound 51], the inhibition at 50 µM in experiment [2] lay within 20 to 30%.

For the compound `CCN1CCc2c(-c3ccccc3)cc(C#N)c(Cl)c2C1` [Compound 52], the inhibition at 50 µM in experiment [2] lay in the range of 25 to 35%. For the compound `CCN1CCc2c(-c3ccccc3)cc(C#N)c(N3CCCC3)c2C1` [Compound 53], in experiment [2], the inhibition at 50 µM was greater than 40%.

For `CCN1CCc2c(-c3cccnc3)cc(C#N)c(N)c2C1` [Compound 54], in experiment [2], the inhibition at 50 µM is greater than 50%. On the same count and under the same terms, for `CCN1CCc2c(-c3ccncc3)cc(C#N)c(N)c2C1` [Compound 55] the value was less than 20%.

Regarding `CCN1CCc2c(-c3ccccc3)cc(C#N)c(N(S(C)(=O)=O)S(C)(=O)=O)c2C1` [Compound 56], the inhibition at 50 µM in experiment [2] is less than 20%. Same read-out and setting: to `CCN1CCc2c(-c3ccccc3)cc(C#N)c(NC(=O)C(=O)OC)c2C1` [Compound 57] belongs less than 20%. The same measure, in the same setting: to `CCN1CCc2c(-c3ccccc3)cc(C#N)c(N3C(=O)CCC3=O)c2C1` [Compound 58] belongs 20 to 30%; to `CCN1CCc2c(-c3ccccc3)cc(C#N)c(-n3cccc3)c2C1` [Compound 59], greater than 50%; to `CCN1CCc2c(-c3ccccc3)cc(C#N)c(-c3cccnc3)c2C1` [Compound 60], 45 to 55%. On the same count and under the same terms, to `CCN1CCc2c(-c3ccccc3)cc(C#N)c(Br)c2C1` [Compound 61] belongs greater than 30%; to `CCN1CCc2c(-c3ccccc3)cc(C#N)c(-c3cnn(C)c3)c2C1` [Compound 62], greater than 30%.
